# Reference: patent publication US20240226225A1 (Protagonist Therapeutics, Inc., priority 2021, published 2024)
# Columns and labels:
# [1] = target: T1, ferroportin (Homo sapiens, UniProt Q9NP59); experiment: T47D cell-based ferroportin internalization assay in presence of 0.5% mouse serum albumin (MSA), AF647-conjugated detection peptide, flow cytometry; design: a human breast carcinoma adherent cell line which endogenously expresses ferroportin; host or cells: T47D; settings: T47D cells, 1 hr incubation
# T1 sequence (Q9NP59 1-571): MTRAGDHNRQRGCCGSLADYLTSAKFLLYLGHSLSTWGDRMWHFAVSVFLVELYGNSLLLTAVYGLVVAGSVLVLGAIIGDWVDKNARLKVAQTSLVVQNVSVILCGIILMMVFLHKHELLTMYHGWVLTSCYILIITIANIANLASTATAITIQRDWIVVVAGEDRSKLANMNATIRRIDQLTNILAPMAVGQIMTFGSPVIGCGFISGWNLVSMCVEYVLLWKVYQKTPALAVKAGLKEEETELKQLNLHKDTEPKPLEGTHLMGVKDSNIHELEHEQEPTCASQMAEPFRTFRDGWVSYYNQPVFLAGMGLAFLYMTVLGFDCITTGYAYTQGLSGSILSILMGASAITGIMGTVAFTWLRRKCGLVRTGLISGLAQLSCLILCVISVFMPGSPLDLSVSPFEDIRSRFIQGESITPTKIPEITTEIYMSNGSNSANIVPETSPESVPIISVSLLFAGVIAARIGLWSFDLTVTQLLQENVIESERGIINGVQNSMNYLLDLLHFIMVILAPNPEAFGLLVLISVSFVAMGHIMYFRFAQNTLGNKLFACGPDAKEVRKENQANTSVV
# Description: The potency of the peptides in causing ferroportin internalization was evaluated in a T47D cell-based assay. […] In this internalization assay, the potency of the test peptides was evaluated in presence of serum albumin which is the main protein component in the blood. T47D cells were maintained in RPMI media (containing required amount of fetal bovine serum) and regularly sub-cultured. In preparation for the assay, the cells were seeded in 96-well plates at a density of 80-100 k cells per well in 100 ul volume and allowed to rest overnight. On the next day, test peptides were first prepared in dilution series (10-point series, starting concentration of ˜5 μM, typically 3-4×fold dilution steps), all with 0.5% mouse serum albumin (MSA purified from mouse serum; Sigma, A3139). The test peptide dilution series were allowed to incubate at room temperature for 30 min. Then the media was aspirated from the 96-well cell plate and test peptide dilution series were added. After 1 hr incubation, the media with test peptides was aspirated out and AF647-conjugated detection peptide was added at fixed concentration of 200 nM. The AF647-conjugated detection peptide was previously verified to bind to ferroportin and cause its internalization. The cells were washed again after a 2 hr incubation in preparation for flow cytometry analysis. The Median Fluorescence Intensity (MFI) of the AF647-positive population was measured (after removing dead cells and non-singlets from the analysis). The MFI values were used to generate a dose-response curve and obtain IC50 potencies for the test peptides. The IC50 potencies were calculated by using 4-parameter non-linear fitting function in Graphpad Prism (Table 2A).
# [2] = target: T1, ferroportin; experiment: FPN activity assay: internalization/degradation of ferroportin-GFP in stably transfected HEK293 cells, decrease in GFP fluorescence; assay type: cell-based; design: expressed in transfected cells; settings: HEK293 cells stably expressing ferroportin-GFP, at least 18 hours incubation; read-out: FPN EC50
# [3] = system: ferroportin fused to green fluorescent protein; settings: read-out: EC50 (50% of the maximal loss of fluorescence); cells incubated for 24 hours with graded concentrations; cited from earlier work
# [4] = target: human ferroportin (SLC40A1) fused in frame with GFP, stably expressed in HEK293 cells (human) (UniProt Q9NP59); experiment: cell-based or functional assay
compound,measurement,setting,value
"CC[C@H](C)[C@@H]1NC(=O)[C@@H](NC(=O)[C@@H]2CCCN2C(=O)[C@@H](NC(=O)[C@H](Cc2cnc[nH]2)NC(=O)[C@@H](NC(=O)[C@H](CC2N=NN=N2)NC(=O)CC(C)C)[C@@H](C)O)C(c2ccccc2)c2ccccc2)CSSC[C@@H](C(N)=O)NC(=O)[C@@H](CCCCN)NC(=O)C[C@H](Cc2ccccc2)NC(=O)[C@H](CCCCNC(=O)COCCOCCNC(=O)COCCOCCNC(=O)[C@H](CN)NC(=O)CCCCCCCCCCCCCCCCC(=O)O)NC1=O [Compd 53, Isovaleric_Acid-[Tet1]-T-H-[Dpa]-P-[Cys]-I-[Lys(1PEG2_1PEG2_Dap_C18_Diacid)]-[bhphe]-[(D)Lys]-[Cys]-NH2]",IC50,[1],10 to 100 nM
same,DC50,[2],10 to 100 nM
Hy-DTHFPIC(1)IFC(2)C(3)GC(2)C(4)HRSKC(3)GMC(4)C(1)KT-OH [Hepcidin],EC50,[3],5 to 15 nM
"Mini-Hepcidin 1-9, Hy-…-NH2 (peptide)","Potency EC50 (nM), FPN activity assay (ferroportin-GFP internalization/degradation, HEK293 cells)",[4],712 nM
"RI-Mini Hepcidin, Hy-DPhe-DIle-DCys-DIle-DPro-DPhe-DHis-DThr-DAsp-NH2 (peptide)","Potency EC50 (nM), FPN activity assay (ferroportin-GFP internalization/degradation, HEK293 cells)",[4],> 10000 nM
